What was measured:
Type in all cases: in vivo
[1] = tested on: large crabgrass (Digitaria sanguinalis); assay: Test A pre-/postemergence plant response; conditions: for Crabgrass, Large plant response rating: visual injury, 0 to 100 scale (0 no effect, 100 complete control), approx. ten days
Summary of the method: (§1)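 Approximately ten days after concurrent pre- and postemergence spraying in a greenhouse, plants were compared with untreated controls and rated visually for injury, 0 = no effect to 100 = complete control. Preemergence spray was directed onto loam/sand soil; postemergence targeted 1–2 leaf seedlings.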

[2] = tested on: corn (Zea mays); assay: Test A pre-/postemergence plant response; conditions: for Corn plant response rating: visual injury, 0 to 100 scale (0 no effect, 100 complete control), approx. ten days
Summary of the method: as §1

[3] = tested on: morningglory (Ipomoea spp.); assay: Test A pre-/postemergence plant response; conditions: for Morningglory plant response rating: visual injury, 0 to 100 scale (0 no effect, 100 complete control), approx. ten days
Summary of the method: as §1

[4] = tested on: giant foxtail (Setaria faberii); assay: Test A pre-/postemergence plant response; conditions: for Foxtail, Giant plant response rating: visual injury, 0 to 100 scale (0 no effect, 100 complete control), approx. ten days
Summary of the method: as §1

[5] = tested on: pigweed (Amaranthus retroflexus); assay: Test A pre-/postemergence plant response; conditions: for Pigweed plant response rating: visual injury, 0 to 100 scale (0 no effect, 100 complete control), approx. ten days
Summary of the method: as §1

[6] = tested on: barnyardgrass (Echinochloa crus-galli); assay: Test A pre-/postemergence plant response; conditions: for Barnyardgrass plant response rating: visual injury, 0 to 100 scale (0 no effect, 100 complete control), approx. ten days
Summary of the method: as §1

[7] = tested on: wheat (Triticum aestivum); assay: Test A pre-/postemergence plant response; conditions: for Wheat plant response rating: visual injury, 0 to 100 scale (0 no effect, 100 complete control), approx. ten days
Summary of the method: as §1

[8] = tested on: velvetleaf (Abutilon theophrasti); assay: Test A pre-/postemergence plant response; conditions: for Velvetleaf plant response rating: visual injury, 0 to 100 scale (0 no effect, 100 complete control), approx. ten days
Summary of the method: as §1

[9] = tested on: barnyardgrass (Echinochloa crus-galli); assay: Test B flooded paddy test; conditions: for Plant response rating, Flood, Barnyardgrass: 250 g ai/ha, flooded paddy test, visual rating on 0 to 100 scale (0 no effect, 100 complete control) after 13 to 15 days; for Plant response rating, Barnyardgrass: Flood (flooded paddy test), 13 to 15 days; for Barnyardgrass plant response rating: Flood, 31 g ai/ha, scale 0 to 100 (0 no effect, 100 complete control)
Summary of the method: (§2)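 Rice, umbrella sedge, ducksalad and barnyardgrass were grown to the 2-leaf stage, flooded to 3 cm, and compound was applied directly to the paddy water, with that depth kept throughout. After 13 to 15 days in the greenhouse, plants were visually rated against controls on a 0 (no effect) to 100 (complete control) scale.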

[10] = tested on: umbrella sedge (Cyperus difformis); assay: Test B flooded paddy test; conditions: for Plant response rating, Flood, Sedge, Umbrella: 250 g ai/ha, flooded paddy test, visual rating on 0 to 100 scale (0 no effect, 100 complete control) after 13 to 15 days; for Plant response rating, Sedge, Umbrella: Flood (flooded paddy test), 13 to 15 days; for Sedge, Umbrella plant response rating: Flood, 31 g ai/ha, scale 0 to 100 (0 no effect, 100 complete control)
Summary of the method: as §2

[11] = tested on: ducksalad (Heteranthera limosa); assay: Test B flooded paddy test; conditions: for Plant response rating, Flood, Ducksalad: 250 g ai/ha, flooded paddy test, visual rating on 0 to 100 scale (0 no effect, 100 complete control) after 13 to 15 days; for Plant response rating, Ducksalad: Flood (flooded paddy test), 13 to 15 days; for Ducksalad plant response rating: Flood, 31 g ai/ha, scale 0 to 100 (0 no effect, 100 complete control)
Summary of the method: as §2

[12] = tested on: rice (Oryza sativa); assay: Test B flooded paddy test; conditions: for Plant response rating, Flood, Rice: 250 g ai/ha, flooded paddy test, visual rating on 0 to 100 scale (0 no effect, 100 complete control) after 13 to 15 days; for Plant response rating, Rice: Flood (flooded paddy test), 13 to 15 days; for Rice plant response rating: Flood, 31 g ai/ha, scale 0 to 100 (0 no effect, 100 complete control)
Summary of the method: as §2

[13] = Postemergence, 125 g ai/ha, 0 to 100 scale where 0 is no effect and 100 is complete control
[14] = Preemergence, 125 g ai/ha, 0 to 100 scale, 0 = no effect, 100 = complete control
[15] = Preemergence, 500 g ai/ha, 0 to 100 scale, 0 = no effect, 100 = complete control
[16] = 62 g ai/ha, scale of 0 to 100 where 0 is no effect and 100 is complete control
[17] = 125 g ai/ha, scale 0 to 100, 0 is no effect, 100 is complete control

COc1cccc(-c2ncc(C(=O)C3=C(O)CCCC3=O)c(=O)n2C2CCCCC2)c1 [Compound 196]
Plant response rating, Crabgrass, Large [1, 13]: 50 | Crabgrass, Large plant response rating ([1]; Postemergence, 500 g ai/ha): 90 | Plant response rating, Crabgrass, Large [1, 14]: 0 | Plant response rating, Crabgrass, Large [1, 15]: 70 | Plant response rating, Corn [2, 13]: 10 | Corn plant response rating ([2]; Postemergence, 500 g ai/ha): 40 | Plant response rating, Corn [2, 14]: 0 | Plant response rating, Corn [2, 15]: 20 | Plant response rating, Morningglory [3, 13]: 100 | Morningglory plant response rating ([3]; Postemergence, 500 g ai/ha): 100 | Plant response rating, Morningglory [3, 14]: 0 | Plant response rating, Morningglory [3, 15]: 40 | Plant response rating, Foxtail, Giant [4, 13]: 70 | Foxtail, Giant plant response rating ([4]; Postemergence, 500 g ai/ha): 100 | Plant response rating, Foxtail, Giant [4, 14]: 0 | Plant response rating, Foxtail, Giant [4, 15]: 80 | Plant response rating, Pigweed [5, 13]: 80 | Pigweed plant response rating ([5]; Postemergence, 500 g ai/ha): 100 | Plant response rating, Pigweed [5, 14]: 0 | Plant response rating, Pigweed [5, 15]: 30 | Plant response rating, Barnyardgrass [6, 13]: 80 | Barnyardgrass plant response rating ([6]; Postemergence, 500 g ai/ha): 90 | Plant response rating, Barnyardgrass [6, 14]: 0 | Plant response rating, Barnyardgrass [6, 15]: 50 | Plant response rating, Wheat [7, 13]: 0 | Wheat plant response rating ([7]; Postemergence, 500 g ai/ha): 30 | Plant response rating, Wheat [7, 14]: 0 | Plant response rating, Wheat [7, 15]: 20 | Plant response rating, Velvetleaf [8, 13]: 100 | Velvetleaf plant response rating ([8]; Postemergence, 500 g ai/ha): 100 | Plant response rating, Velvetleaf [8, 14]: 0 | Plant response rating, Velvetleaf [8, 15]: 50 | Plant response rating, Flood, Barnyardgrass [9]: 30 | Plant response rating, Barnyardgrass [9, 16]: 0 | Plant response rating, Barnyardgrass [9, 17]: 20 | Barnyardgrass plant response rating [9]: 0 | Plant response rating, Flood, Sedge, Umbrella [10]: 80 | Plant response rating, Sedge, Umbrella [10, 16]: 30 | Plant response rating, Sedge, Umbrella [10, 17]: 75 | Sedge, Umbrella plant response rating [10]: 20 | Plant response rating, Flood, Ducksalad [11]: 95 | Plant response rating, Ducksalad [11, 16]: 60 | Plant response rating, Ducksalad [11, 17]: 95 | Ducksalad plant response rating [11]: 40 | Plant response rating, Flood, Rice [12]: 65 | Plant response rating, Rice [12, 16]: 0 | Plant response rating, Rice [12, 17]: 40 | Rice plant response rating [12]: 0

O=C1CCCC(O)=C1C(=O)c1cnc(-c2ccc(F)c(F)c2)n(C2CCCCC2)c1=O [Compound 198]
Plant response rating, Crabgrass, Large [1, 13]: 70 | Crabgrass, Large plant response rating ([1]; Postemergence, 500 g ai/ha): 100 | Plant response rating, Crabgrass, Large [1, 14]: 10 | Plant response rating, Crabgrass, Large [1, 15]: 90 | Plant response rating, Corn [2, 13]: 0 | Corn plant response rating ([2]; Postemergence, 500 g ai/ha): 30 | Plant response rating, Corn [2, 14]: 0 | Plant response rating, Corn [2, 15]: 20 | Plant response rating, Morningglory [3, 13]: 100 | Morningglory plant response rating ([3]; Postemergence, 500 g ai/ha): 100 | Plant response rating, Morningglory [3, 14]: 0 | Plant response rating, Morningglory [3, 15]: 30 | Plant response rating, Foxtail, Giant [4, 13]: 60 | Foxtail, Giant plant response rating ([4]; Postemergence, 500 g ai/ha): 90 | Plant response rating, Foxtail, Giant [4, 14]: 70 | Plant response rating, Foxtail, Giant [4, 15]: 70 | Plant response rating, Pigweed [5, 13]: 90 | Pigweed plant response rating ([5]; Postemergence, 500 g ai/ha): 100 | Plant response rating, Pigweed [5, 14]: 10 | Plant response rating, Pigweed [5, 15]: 100 | Plant response rating, Barnyardgrass [6, 13]: 70 | Barnyardgrass plant response rating ([6]; Postemergence, 500 g ai/ha): 100 | Plant response rating, Barnyardgrass [6, 14]: 0 | Plant response rating, Barnyardgrass [6, 15]: 50 | Plant response rating, Wheat [7, 13]: 0 | Wheat plant response rating ([7]; Postemergence, 500 g ai/ha): 0 | Plant response rating, Wheat [7, 14]: 0 | Plant response rating, Wheat [7, 15]: 20 | Plant response rating, Velvetleaf [8, 13]: 100 | Velvetleaf plant response rating ([8]; Postemergence, 500 g ai/ha): 100 | Plant response rating, Velvetleaf [8, 14]: 0 | Plant response rating, Velvetleaf [8, 15]: 80 | Plant response rating, Flood, Barnyardgrass [9]: 35 | Plant response rating, Barnyardgrass [9, 16]: 0 | Plant response rating, Barnyardgrass [9, 17]: 30 | Barnyardgrass plant response rating [9]: 0 | Plant response rating, Flood, Sedge, Umbrella [10]: 80 | Plant response rating, Sedge, Umbrella [10, 16]: 20 | Plant response rating, Sedge, Umbrella [10, 17]: 80 | Sedge, Umbrella plant response rating [10]: 20 | Plant response rating, Flood, Ducksalad [11]: 95 | Plant response rating, Ducksalad [11, 16]: 50 | Plant response rating, Ducksalad [11, 17]: 85 | Ducksalad plant response rating [11]: 40 | Plant response rating, Flood, Rice [12]: 50 | Plant response rating, Rice [12, 16]: 20 | Plant response rating, Rice [12, 17]: 20 | Rice plant response rating [12]: 15

Source: patent US8952024B2, “Herbicidal pyrimidone derivatives” (E I du Pont de Nemours and Company, priority 2009, dated 2015)
